Assay [1] deals with T1, α4β2 neuronal nicotinic receptor subtype (Rattus norvegicus, UniProt P09483+P12390).
T1 construct: Membrane enriched fractions from rat brain minus cerebellum; tissue ABS Inc., Wilmington, DE; host or cells: rat brain minus cerebellum, membrane enriched fractions
Briefly: [3H]-cytisine binding assay, rat brain membrane preparation. The note with it: [3H]-cytisine binding site; read-out: binding affinity Ki. The procedure:
The method can be accomplished under any suitable binding conditions. […] IC50 and Ki values can be determined from data obtained in the [^3H]-cytisine binding assay.
Binding conditions were modified from the procedures described in Pabreza L A, Dhawan, S, Kellar K J, [^3H]-Cytisine Binding to Nicotinic Cholinergic Receptors in Brain, Mol. Pharm. 39: 9-12, 1991. Membrane enriched fractions from rat brain minus cerebellum (ABS Inc., Wilmington, DE) were slowly thawed at 4° C., washed and resuspended in 30 volumes of BSS-Tris buffer (120 mM NaCl/5 mM KCI/2 mM CaCl2/2 mM MgCl2/50 mM Tris-Cl, pH 7.4, 4° C.). Samples containing 100-200 μg of protein and 0.75 nM [^3H]-cytisine (30 Ci/mmol; Perkin Elmer/NEN Life Science Products, Boston, MA) were incubated in a final volume of 500 μL for 75 minutes at 4° C. Seven log-dilution concentrations of each compound were tested in duplicate. Non-specific binding was determined in the presence of 10 μM (−)-nicotine. Bound radioactivity was isolated by vacuum filtration onto prewetted glass fiber filter plates (Millipore, Bedford, MA) using a 96-well filtration apparatus (Packard Instruments, Meriden, CT) and were then rapidly rinsed with 2 mL of ice-cold BSS buffer (120 mM NaCl/5 mM KCl/2 mM CaCl2/2 mM MgCl2). Packard MicroScint-20® scintillation cocktail (40 μL) was added to each well and radioactivity determined using a Packard TopCount® instrument. The IC50 values were determined by nonlinear regression in Microsoft Excel® software. Ki values were calculated from the IC50s using the Cheng-Prusoff equation, where Ki=IC50/1+[Ligand]/KD].

Assay [2] concerns adults with ADHD. The following applies: transdermal, 32 adults; cited from earlier work.

pKi: −log10 of the molar value.

Broadly, the pKi is the Ki on a negative log10 scale, so that one unit is a factor of ten.

T1 sequence (P09483 31-630): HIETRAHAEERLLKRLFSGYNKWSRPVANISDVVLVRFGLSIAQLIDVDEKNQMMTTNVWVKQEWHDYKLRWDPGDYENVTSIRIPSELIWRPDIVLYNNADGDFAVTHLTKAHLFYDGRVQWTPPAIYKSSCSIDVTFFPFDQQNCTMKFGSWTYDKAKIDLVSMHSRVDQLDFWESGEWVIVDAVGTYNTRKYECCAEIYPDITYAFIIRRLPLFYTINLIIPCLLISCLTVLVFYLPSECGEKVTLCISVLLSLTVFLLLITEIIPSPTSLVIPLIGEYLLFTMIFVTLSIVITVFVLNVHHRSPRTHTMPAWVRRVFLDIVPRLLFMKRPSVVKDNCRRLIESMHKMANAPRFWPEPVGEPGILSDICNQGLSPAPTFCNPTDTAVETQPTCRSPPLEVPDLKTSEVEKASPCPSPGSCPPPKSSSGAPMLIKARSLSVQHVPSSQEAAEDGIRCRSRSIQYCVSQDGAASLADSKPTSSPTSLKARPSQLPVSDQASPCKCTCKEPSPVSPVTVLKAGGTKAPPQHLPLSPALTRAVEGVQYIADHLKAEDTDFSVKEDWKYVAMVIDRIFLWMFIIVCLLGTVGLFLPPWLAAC
T1 sequence (P12390 25-500): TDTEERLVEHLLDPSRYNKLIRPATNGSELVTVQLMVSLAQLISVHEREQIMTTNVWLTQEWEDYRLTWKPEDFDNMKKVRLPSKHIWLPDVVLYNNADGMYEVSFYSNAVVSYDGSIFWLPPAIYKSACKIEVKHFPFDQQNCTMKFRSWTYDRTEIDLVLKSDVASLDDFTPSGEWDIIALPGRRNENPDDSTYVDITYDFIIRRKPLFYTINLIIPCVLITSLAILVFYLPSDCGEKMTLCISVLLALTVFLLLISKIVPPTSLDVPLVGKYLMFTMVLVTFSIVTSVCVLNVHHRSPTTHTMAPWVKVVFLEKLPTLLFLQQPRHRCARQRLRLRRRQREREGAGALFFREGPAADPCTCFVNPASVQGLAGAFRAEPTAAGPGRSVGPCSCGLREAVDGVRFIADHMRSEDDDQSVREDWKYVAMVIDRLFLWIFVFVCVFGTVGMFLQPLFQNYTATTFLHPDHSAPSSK

In the case of `Clc1ccc(-c2cc(OC[C@@H]3CCCN3)cnc2Cl)cc1`, the pKi in assay [1] was 10.40.

In the case of `c1ccc2ncc(N3CC4CNCC4C3)cc2c1` (stereo not shown), in assay [1], the pKi was 8.82.

For `c1cncc(N2CC[C@@H]3CNC[C@@H]32)c1` [(R,R)-1-(pyridin-3-yl)-octahydro-pyrrolo[3,4-b]pyrrole], the pKi in assay [1] was 8.06.

As for `Cc1cc([C@@H]2CCCN2C)on1` [ABT-418], the “efficacy in treating ADHD” value in assay [2] is on record as “effective in treating ADHD”.
